Measurements reported in patent publication US7070943B2 (priority 1998, dated 2006).

What was measured:
hypophosphorylated pRB = assay: pRB^P− in differentiating HL-60 cells, flow cytometry; type: cell-based, human; conditions: RA 5×10^−7 M 5 days, vitamin D3 10^−8 M 6 days
Description: (§1) The human promyelocytic leukemic cell line HL-60 was kindly provided by Dr. Harry A. Crissman of the Los Alamos National Laboratory (Los Alamos, N. Mex.). The cells were maintained in RPMI 1640 supplemented with 10% fetal calf serum, 100 units/ml penicillin, 100 μg/ml streptomycin, and 2 mM L-glutamine at a density between 2 and 8×10^5 cells/ml at 37.5° C. in the mixture of 95% air and 5% CO2 for the periods of time described in the legends to the respective figures. During the exponential phase of cell growth, at densities below 8×10^5 cells/ml, the mean duration of the cell cycle of these cells is 23 hours (estimated as described in Darzynkiewicz, “Mammalian cell cycle analysis,” in The Cell Cycle: A Practical Approach, P. Fantes and R. Brooks, Eds., pp. 45–68 (Oxford Univ. Press, Oxford, UK, (1993)), and the mean duration of G1, S, G2, and M 11, 9, 2, and 1 h, respectively. The medium, supplements, and antibiotics were obtained from Life Technologies (Grand Island, N.Y.).
(§2) All-trans retinoic acid (RA), 1,25-dihydroxy vitamin D3 (vitamin D3), and phorbol myristate acetate (PMA) were purchased from Sigma Chemical Co. (St. Louis, Mo.). […] Control cells were treated with an equivalent concentration of ethanol (<0.02%). Stock solution of PMA at 1.6 mM was prepared in DMSO, stored at −20° C. in the dark, and used at a final concentration of 4×10^−8 M. The cultures were kept shielded from light. […]
(§3) Methods were essentially as described in Example 1. […] The cells were then rinsed with PBS containing 1% BSA, counterstained with 4,6-diamidino-2-phenyl indole (DAPI) (Molecular Probes Inc., Eugene, Oreg.), and their fluorescence was measured by flow cytometry.
(§4) Cellular fluorescence was measured with the ELITE ESP flow cytometer/cell sorter (Coulter Inc., Miami, Fla.) using an argon ion laser (emission at 488 nm) combined with a helium-cadmium laser (emitting UV light). DNA content was analyzed based on DAPI fluorescence (blue emission) excited by UV light, while the anti-pRb^P− mAb (FITC)-related emission and anti-pRB^T (CYCHROME®)-related emission was excited with blue light laser. To obtain the mean fluorescence values as shown in FIGS. 7–10, the cells were gated based on differences in their DNA content to distinguish cells in G1, S, and G2/M, and from the mean values of the FITC fluorescence the mean value of the respective control cells (FITC-conjugated isotype-matched IgG1) in the same phase of the cycle was subtracted. The mean values of S phase cells were multiplied by 0.75 and of G2/M cells by 0.5 to express the pRB-associated cell fluorescence per unit of DNA. The data were normalized to the mean fluorescence value of G1 cells from the untreated, control culture (100), as shown in FIGS. 7–10.

total pRB [1] = assay: pRB^T in differentiating HL-60 cells, flow cytometry; type: cell-based, human; conditions: RA 5×10^−7 M 5 days, vitamin D3 10^−8 M 6 days
Description: as §1, §2, §3, §4

HL-60 cells = assay: Cell cycle arrest and apoptosis of HL-60 cells during induced differentiation; type: cell-based, human
Description: Control cells were treated with an equivalent concentration of ethanol (<0.02%). […]

pRB [2] = assay: Western blot of pRB in HL-60 cells with anti-pRB^P− and anti-pRB^T mAbs; type: cell-based, human; conditions: HL-60, treated versus control
Text: FIG. 10 presents a Western blot showing reactivity of anti-pRB^P− mAb(A) and anti-pRB^T mAb with proteins extracted from control (CON) and PMA-treated cells.
To reveal specificity of the antibodies used in these experiments, a standard Western blotting procedure was used on cellular lysates, as described in Gong et al., Cell Growth Differ. 6:1485–1493 (1995).

cyclin D3 [3] = assay: Cyclin D3 expression in mitogen-stimulated lymphocytes, flow cytometry; type: cell-based, Human; conditions: 10 μg/ml
Description: (§5) Human peripheral blood lymphocytes, obtained from healthy volunteers by venipuncture, were isolated by density gradient centrifugation. The cells were washed twice with phosphate-buffered saline (PBS), resuspended in RPMI 1640 medium supplemented with 10% fetal calf serum, 100 units/ml penicillin, 100 μg/ml streptomycin and 2 mM L-glutamine at a density of 10^6 cells/ml, treated with 10 μg/ml of phytohemagglutinin (PHA) and incubated at 37.5° C. in the mixture of 95% air and 5% CO2 for the periods of time shown in the respective figure legends. The medium, supplements, and antibiotics were obtained from Life Technologies (Grand Island, N.Y.), PHA from Sigma Chemical Co. (St. Louis, Mo.).
After cell fixation (as described above) the cells were washed twice with PBS, suspended in 1 ml of 0.25% Triton X-100 in PBS, kept on ice for 5 min, centrifuged (300 g; 5 min) and the cell pellet resuspended in 100 μl of PBS containing 0.5 μg of the anti-cyclin D3 mAb (clone G107-565, mouse IgG,; PharMingen cat. No. 14781) and 1% BSA and incubated for 2 hours at room temperature. […] The cells were rinsed again, resuspended in 5 μg/ml of PI and 0.1% RNase in PBS and incubated at room temperature for 20 min prior to fluorescence measurements. Isotype-matched IgG (Sigma) was used as a control to define the background fluorescence. […]

total pRB [4] = assay: Total pRB in mitogen-stimulated lymphocytes, anti-pRB^T mAb flow cytometry; type: cell-based, Human; conditions: 10 μg/ml, throughout all times of exposure
Description: as §5
The cells were washed with PBS and fixed in suspension in 1% formaldehyde in PBS for 15 min on ice. […] The cells were then rinsed with PBS containing 1% BSA and their fluorescence was measured by flow cytometry.
Cellular fluorescence was measured with the ELITE ESP flow cytometer/cell sorter (Coulter Inc., Miami, Fla.) using either an argon ion laser (emission at 488 nm) alone or combined with a helium-cadmium laser (emitting UV light). In the first case, fluorescence signals were collected using the standard configuration of the flow cytometer (green fluorescence, representing FITC labeled anti-pRB^P− mAb; red fluorescence representing CyChrome tagged anti-pRB^T mAb). […]

underphosphorylated pRB = assay: pRB phosphorylation in mitogen-stimulated lymphocytes, anti-pRB^P− mAb flow cytometry; type: cell-based, Human
Description: as §5
Stock solution of staurosporine (STP; Kamiya Biomedical Co., Thousand Oaks, Calif.) was made in dimethyl sulfoxide (DMSO) at a concentration 0.2 mM and was stored at −20° C.
The cells were washed with PBS and fixed in suspension in 1% formaldehyde in PBS for 15 min on ice. The cells were then washed with PBS and resuspended in ice-cold 80% ethanol for up to 24 h. After fixation the cells were rinsed twice with PBS and resuspended in 100 μl of PBS containing 0.25% Triton X-100 (Sigma), 1% bovine serum albumin (BSA; Sigma) and 1.2 μg/ml of the anti-pRB^T mAb (clone G3-245; PharMingen cat. No. 14001A) conjugated with CYCHROME® and/or with 1 μg/ml of anti-pRB^P− mAb (clone G99-549; PharMingen cat. No. 14441A), conjugated with FITC and incubated for 2 hours at room temperature. The cells were then rinsed with PBS containing 1% BSA and their fluorescence was measured by flow cytometry.
Cellular fluorescence was measured with the ELITE ESP flow cytometer/cell sorter (Coulter Inc., Miami, Fla.) using either an argon ion laser (emission at 488 nm) alone or combined with a helium-cadmium laser (emitting UV light). In the first case, fluorescence signals were collected using the standard configuration of the flow cytometer (green fluorescence, representing FITC labeled anti-pRB^P− mAb; red fluorescence representing CyChrome tagged anti-pRB^T mAb). In the second case, DNA content was analyzed based on DAPI fluorescence (blue emission) excited by UV light, while the anti-pRB^P− mAb FITC-related emission and anti-pRB^T CYCHROME®-related emission was excited with blue light laser. Unless noted, the procedures for multicolor measurement of cellular fluorescence and multivariate cell analysis were essentially as described in Juan et al., Cell. Prolif. 29:259–266 (1996) and Juan et al., Exper. Cell Res. 227:197–202 (1996). The experiments were repeated several times, on lymphocytes obtained from three different donors, yielding essentially identical results.

lymphocytes = conditions: 20 nM; cited from earlier work
cyclin D3 [5] = conditions: lymphocytes, 20 nM; cited from earlier work
pRB [6] = assay: pRB^P−/pRB^T ratio in differentiating HL-60 cells, flow cytometry; type: cell-based, human; conditions: RA 5×10^−7 M 5 days, vitamin D3 10^−8 M 6 days
Description: Briefly, the cells were fixed in suspension in 1% formaldehyde in PBS for 15 min on ice, then washed with PBS, and resuspended in ice-cold 80% ethanol for up to 24 h. […] The cells were then rinsed with PBS containing 1% BSA, counterstained with 4,6-diamidino-2-phenyl indole (DAPI) (Molecular Probes Inc., Eugene, Oreg.), and their fluorescence was measured by flow cytometry.

## C=C1/C(=C\C=C2/CCC[C@]3(C)[C@@H]([C@H](C)CCCC(C)(C)O)CC[C@@H]23)C[C@@H](O)C[C@@H]1O [vitamin D3, 1,25-dihydroxy vitamin D3]
Hypophosphorylated pRB
  increase in pRB^P− of G0/1 cells: fourfold
  pRB^P− of S and G2/M phase cells versus control cultures: over an order of magnitude higher
Total pRB [1]
  increase in pRB^T of G0/1 cells versus untreated cultures: 20%
  pRB^T of S and G2/M cells versus untreated cultures: nearly twofold higher
HL-60 cells
  cell cycle arrest on induced differentiation: cell arrest primarily in G0/1

## CCCCCCCCCCCCCC(=O)O[C@@H]1[C@@H](C)[C@@]2(O)[C@@H](C=C(CO)C[C@]3(O)C(=O)C(C)=C[C@@H]23)[C@@H]2C(C)(C)[C@]12OC(C)=O [PMA, phorbol myristate acetate]
pRB [2]
  bands of hypophosphorylated, hyperphosphorylated and total pRB, Western blot: increased intensity bands
HL-60 cells
  cell cycle arrest on induced differentiation: cell arrest primarily in G0/1

## phytohemagglutinin [PHA]
Cyclin D3 [3]; at 12 h
  proportion of cyclin D3-positive cells: ~70%
Cyclin D3 [3]; at 24 h
  proportion of cyclin D3-positive cells: 40%
Total pRB [4]
  frequency of cells reactive with anti-pRB^T mAb: over 80%
Underphosphorylated pRB; 10 μg/ml, at 24 h
  percentage of anti-pRB^P− mAb negative cells: 45%
Underphosphorylated pRB; 10 μg/ml, between 4 and 12 hours
  fraction of lymphocytes that did not react with anti-pRB^P− mAb: ~80%
Underphosphorylated pRB; 10 μg/ml, decreasing from 98 between 3 and 4 hours of stimulation
  percentage of anti-pRB^P− mAb negative cells: about 20%
Underphosphorylated pRB; 10 μg/ml, up to 14 h
  percentage of anti-pRB^P− mAb negative cells: about 20%

## CN[C@@H]1C[C@H]2O[C@@](C)([C@@H]1OC)n1c3ccccc3c3c4c(c5c6ccccc6n2c5c31)C(=O)NC4 [STP, staurosporine]
lymphocytes
  arrest of lymphocytes in cell cycle: arrests lymphocytes in G1
Cyclin D3 [5]
  induction of cyclin D3: does not interfere with the induction of cyclin D3
Underphosphorylated pRB; lymphocytes stimulated with PHA 24 hours, 20 nM
  appearance of the cell population unreactive with anti-pRB^P− mAb (pRB phosphorylation): precluded the appearance of the cell population unreactive with anti-pRB^P− mAb

## CC1=C(/C=C/C(C)=C/C=C/C(C)=C/C(=O)O)C(C)(C)CCC1 [RA, All-trans retinoic acid]
Hypophosphorylated pRB
  increase in pRB^P− of G0/1 cells: fourfold
  pRB^P− of S and G2/M phase cells versus control cultures: over an order of magnitude higher
pRB [6]
  pRB^P−/pRB^T level of S and G2/M phase cells versus control: over fivefold higher
Total pRB [1]
  increase in pRB^T of G0/1 cells versus untreated cultures: 60%
  pRB^T of S and G2/M cells versus untreated cultures: nearly twofold higher
HL-60 cells
  cell cycle arrest on induced differentiation: cell arrest primarily in G0/1
